Experimental data taken from BindingDB's records for doi:10.1016/j.ejmech.2019.02.016 (National Health Research Institutes, 2019).

Assay: Inhibition of NS5A in HCV genotype 1b infected in human HuH7 replicon cells assessed as reduction in subgenomic viral RNA replication treated for 2 days followed by compound washout and subsequent compound dosing measured after 1 day by SEAP reporter gene assay

Compared with `CCCC(=O)N[C@@H](C(=O)N1CCC[C@H]1c1ncc(-c2ccc(-c3ccc(-c4cnc([C@@H]5CCCN5C(=O)[C@H](NC(=O)CCC)c5ccccc5)s4)cc3)cc2)s1)c1ccccc1`, `CC(=O)N[C@H](C(=O)N1CCC[C@H]1c1ncc(-c2ccc(-c3ccc(-c4cnc([C@@H]5CCCN5C(=O)[C@H](NC(C)=O)c5ccccc5)s4)cc3)cc2)s1)c1ccccc1` is 45-fold higher in EC50: 0.013 nM for the first, 0.59 nM for the second. The first is the more potent here.

Going from `CS(=O)(=O)N[C@@H](C(=O)N1CCC[C@H]1c1ncc(-c2ccc(-c3ccc(-c4cnc([C@@H]5CCCN5C(=O)[C@H](NS(C)(=O)=O)c5ccccc5)s4)cc3)cc2)s1)c1ccccc1` to `CS(=O)(=O)N[C@H](C(=O)N1CCC[C@H]1c1ncc(-c2ccc(-c3ccc(-c4cnc([C@@H]5CCCN5C(=O)[C@H](NS(C)(=O)=O)c5ccccc5)s4)cc3)cc2)s1)c1ccccc1`, the EC50 rises from 3.4 nM to 149 nM (44-fold). The first is the more potent here.

Going from `CCCC[C@H](NC(=O)OC)C(=O)N1CCC[C@H]1c1ncc(-c2ccc(-c3ccc(-c4cnc([C@@H]5CCCN5C(=O)[C@H](CCCC)NC(=O)OC)s4)cc3)cc2)s1` to `C[C@@H](NC(=O)C1CC1)C(=O)N1CCC[C@H]1c1ncc(-c2ccc(-c3ccc(-c4cnc([C@@H]5CCCN5C(=O)[C@@H](C)NC(=O)C5CC5)s4)cc3)cc2)s1`, the EC50 falls from 237 nM to 115 nM (2.1-fold). The second is the more potent here.

Going from `O=C(CCN1CCCC1)N[C@@H](C(=O)N1CCC[C@H]1c1ncc(-c2ccc(-c3ccc(-c4cnc([C@@H]5CCCN5C(=O)[C@H](NC(=O)CCN5CCCC5)c5ccccc5)s4)cc3)cc2)s1)c1ccccc1` to `O=C(CCN1CCCCC1)N[C@@H](C(=O)N1CCC[C@H]1c1ncc(-c2ccc(-c3ccc(-c4cnc([C@@H]5CCCN5C(=O)[C@H](NC(=O)CCN5CCCCC5)c5ccccc5)s4)cc3)cc2)s1)c1ccccc1`, the EC50 falls from 4 nM to 0.89 nM (4.5-fold).

Going from `O=C(N[C@@H](C(=O)N1CCC[C@H]1c1ncc(-c2ccc(-c3ccc(-c4cnc([C@@H]5CCCN5C(=O)[C@H](NC(=O)N5CCOCC5)c5ccccc5)s4)cc3)cc2)s1)c1ccccc1)N1CCOCC1` to `CC(C)C(=O)N[C@@H](C(=O)N1CCC[C@H]1c1ncc(-c2ccc(-c3ccc(-c4cnc([C@@H]5CCCN5C(=O)[C@H](NC(=O)C(C)C)c5ccccc5)s4)cc3)cc2)s1)c1ccccc1`, the EC50 falls from 0.02 nM to 0.009 nM (2.2-fold).

First: O=C(N[C@H](C(=O)N1CCC[C@H]1c1ncc(-c2ccc(-c3ccc(-c4cnc([C@@H]5CCCN5C(=O)[C@H](NC(=O)c5ccncc5)c5ccccc5)s4)cc3)cc2)s1)c1ccccc1)c1ccncc1
Second: O=C(N[C@@H](C(=O)N1CCC[C@H]1c1ncc(-c2ccc(-c3ccc(-c4cnc([C@@H]5CCCN5C(=O)[C@H](NC(=O)c5ccncc5)c5ccccc5)s4)cc3)cc2)s1)c1ccccc1)c1ccncc1
The EC50 of the first is 34-fold higher: 0.37 nM for the first, 0.011 nM for the second. The second is the more potent here.

First: CC(C)(C)[C@@H](NC(=O)C1CC1)C(=O)N1CCC[C@H]1c1ncc(-c2ccc(-c3ccc(-c4cnc([C@@H]5CCCN5C(=O)[C@H](NC(=O)C5CC5)C(C)(C)C)s4)cc3)cc2)s1
Second: CC(C)C(=O)N[C@H](C(=O)N1CCC[C@H]1c1ncc(-c2ccc(-c3ccc(-c4cnc([C@@H]5CCCN5C(=O)[C@H](NC(=O)C(C)C)c5ccccc5)s4)cc3)cc2)s1)c1ccccc1
The EC50 of the first is 5200-fold higher: 1600 nM for the first, 0.31 nM for the second.

Compared with `CCN(CC)CCC(=O)N[C@H](C(=O)N1CCC[C@H]1c1ncc(-c2ccc(-c3ccc(-c4cnc([C@@H]5CCCN5C(=O)[C@H](NC(=O)CCN(CC)CC)c5ccccc5)s4)cc3)cc2)s1)c1ccccc1`, `O=C(Cc1ccccc1)N[C@H](C(=O)N1CCC[C@H]1c1ncc(-c2ccc(-c3ccc(-c4cnc([C@@H]5CCCN5C(=O)[C@H](NC(=O)Cc5ccccc5)c5ccccc5)s4)cc3)cc2)s1)c1ccccc1` is 7.6-fold lower in EC50: 22 nM for the first, 2.9 nM for the second.

`O=C(N[C@@H](C(=O)N1CCC[C@H]1c1ncc(-c2ccc(-c3ccc(-c4cnc([C@@H]5CCCN5C(=O)[C@H](NC(=O)c5cccnc5)c5ccccc5)s4)cc3)cc2)s1)c1ccccc1)c1cccnc1` gave an EC50 of 0.13 nM.
